Laboratory results taken from patent publication US4859776A, “(S)-7-(3-aminopyrrolidin-1-yl)-1-(ortho, para-difluorophenyl)-1,4-dihydro-6-fluoro-4-oxo-1,8-naphthyridine-3-carb oxylic acid and method for its preparation” (Abbott Laboratories, priority 1988, dated 1989).

Legend:
E. Coli Juhl = test: Mouse protection test, E. Coli Juhl; format: in vivo; conditions: Escherichia coli
Description: (§1) The differences in in vivo antibacterial activity of racemic (R,S) compound (A) versus the (S) enantiomeric form of compound (A) are shown in Table I. |POTENCY OF (A) IN MOUSE PROTECTION TESTS | ED50 (mg/kg/day)

P. Aeruginosa 5007 = test: Mouse protection test, P. Aeruginosa 5007; format: in vivo; conditions: Pseudomonas aeruginosa
Description: as §1

S. Aureus NCTC 10649 = test: Mouse protection test, S. Aureus NCTC 10649; format: in vivo; conditions: Staphylococcus aureus
Description: as §1

[1] = racemic mixture; J. Med. Chem., 29, 2363 (1986); cited from earlier work
[2] = one enantiomeric form vs the other form; background statement; cited from earlier work

SMILES	ED50 (E. Coli Juhl; oral)	ED50 (E. Coli Juhl; sc, subcutaneous)	ED50 (P. Aeruginosa 5007; oral)	ED50 (P. Aeruginosa 5007; sc, subcutaneous)	ED50 (S. Aureus NCTC 10649; NCTC10649, oral)	ED50 (S. Aureus NCTC 10649; NCTC10649, sc, subcutaneous)	antibacterial properties [1]	activity in raising blood pressure, one enantiomeric form versus the other [2]
NC1CCN(c2nc3c(cc2F)c(=O)c(C(=O)O)cn3-c2ccc(F)cc2F)C1 (racemic) [(R,S)--(A), 7-(3-aminopyrrolidin-1-yl)-1-(o,p-difluorophenyl)-1,4-dihydro-6-fluoro-4-oxo-1,8-naphthyridine-3-carboxylic acid]	1.2 mg/kg	0.3 mg/kg	16 mg/kg	> 20 mg/kg	1 mg/kg	0.4 mg/kg	has been shown to exhibit antibacterial properties	–
CNCC(O)c1ccc(O)c(O)c1 (centres unmarked) [adrenalin]	–	–	–	–	–	–	–	over ten times more active
N[C@H]1CCN(c2nc3c(cc2F)c(=O)c(C(=O)O)cn3-c2ccc(F)cc2F)C1 [(S)--(A), (S)-7-(3-aminopyrrolidin-1-yl)-1-(o,p-difluorophenyl)-1,4-dihydro-6-fluoro-4-oxo-1,8-naphthyridine-3-carboxylic acid]	0.8 mg/kg	0.2 mg/kg	12.1 mg/kg	8.6 mg/kg	0.8 mg/kg	0.4 mg/kg	–	–
